This note sets out measurements from patent US6852316B2, “Cancer treatment” (Queen Mary & Westfield College, priority 1998, dated 2005).

“Also recorded” adds a separate entry of the source.

Common to all, as to assay type: cell-based
In experiment [1] the test system is β1 integrin. Nature of the experiment: 125I labelling and immunoprecipitation of β1 integrin, SDS-PAGE autoradiography. Particulars: MCF-7 cells, A-II 10^−5 M for 24 hours, compared to control, non-reducing conditions. Here is the method:
Immunoprecipitation is a technique for the detection and quantification of target protein. It comprises the five steps of radiolabelling of the cell-membrane proteins, cell lysis, formation of the specific antibody-antigen complexes, extraction of these complexes and analysis of the radiolabelled target proteins contained within the immunoprecipitation. All experiments were performed in triplicate.
For immunoprecipitation experiments, MCF-7 cells were cultured in 5% FBS-supplemented MEM. When sub-confluent, the medium was removed and the cells washed with phosphate buffered saline (PBS) (0.15 M sodium chloride, 20 mM sodium monophosphate; pH 7.5). The medium was then replaced with serum-free MEM and treated with angiotensin-II (A-II) at a concentration of 10^−5 M for 24 hours. Control cells were cultured in serum-free medium only. On this occasion the cells were harvested not by trypsinisation, which may impair the immunoprecipitation process, but with a cell scraper. They were then gently passed repeatedly through a narrow pipette, to break down cell clusters, and centrifuged at 900 rpm per ten minutes.
The cell pellets as above were taken up in PBS and counted with the haemocytometer. Trypan blue exclusion was employed so that 1-2×10^6 viable cells were taken up in each 1 ml aliquot. […]

For experiment [2], the system named is breast cancer cells. Nature of the experiment: Breast cancer cell growth in culture, light microscopy.
Experiment [3] has as its system β1 integrin. Description: Immunocytochemistry for β1 integrin expression in MCF-7 cancer cell line. Particulars: MCF-7 cells treated with A-II at 10^−5 M, versus control. Here is the method:
Immunocytochemical straining of both receptors was based on the standard streptavidinbiotin peroxidase method. For the optimal working concentration of both antibodies serial dilutions were performed. The AT1R antibody 6313/G2 in the range 1:1 to 1:500 and for anti-β1 integrin between 1:10 and 1:500.
For integrin B1 receptor straining both with and without A-II pre-treatment, harvested cells were plated onto sterile microscope slides within slide culture wells (Heraeus Instruments GmbH, Osterode am Harz, Germany) and incubated with fresh BCM. When sub-confluent the medium was replaced with serum-free BCM to which was added Angiotensin-II (A-II), or not in the case of controls which were subjected to otherwise identical preparation and straining. Angiotensin-II (A-II) was added in the concentration range 10^−5M to 10^−9M and incubated for 24 hours. The medium was then removed, the slides rinsed with PBS, air dried and stored frozen as above.
The slides, prepared as above, were removed from frozen storage and placed directly into 100% acetone (British Drug Houses) at −10° C. for 10 minutes. They were then air-dried for 10 minutes and rehydrated in 0.05 M Tris-buffered saline (TBS)(0.05 M sodium chloride, 0.05 M Trizma base, 36 mM hydrochloric acid, pH 7.6) twice for 3 minutes each. […]

For experiment [4], the system named is breast cancer cells. Nature of the experiment: Invasion chamber assay, IGF-I stimulated breast cancer cell invasion. On the procedure:
The effect of angiotensin-II (A-II) in inhibiting growth factor-induced stimulated cancer cell invasiveness was studied as a model system and the results are shown in FIG. 3. The study was carried out using an invasion chamber in which two compartments are separated by a perforated membrane coated in matrix protein. A chemoattractant, IGF-I, was added to the medium on one side of the chamber, and the breast cancer cells to the other. Invasiveness was measured by counting the cells that migrated from one chamber to the other.

For the substance “Asp-Arg-Val-Tyr-Ile-His-Pro-Phe (DRVYIHPF; Sequence Source Uncertain) [angiotensin-II]”, the “β1 integrin expression (density of protein band on gel autoradiograph)” value in the experiment on β1 integrin [1] is recorded as “relative increase in density; also recorded: increased expression”. For the same substance, in the experiment on breast cancer cells [2] (breast cancer cells in culture), the “stimulation of cell growth” value is listed as “did not stimulate cell growth”. In the experiment on breast cancer cells [2] (grown in presence of angiotensin-II versus control cultures, light microscopy), the “size of cell clusters in culture” value is “larger clusters of cells”. In the experiment with β1 integrin [3], the “β1 integrin staining (expression of β1 integrin protein)” value is listed as “increase in staining”. Besides, the “reduction in mean invasion” value in the experiment on breast cancer cells [4] (A-II pre-treatment versus control, IGF-I chemoattractant) is reported as “tenfold reduction”. This substance came in with a mean invasion with breast cancer cells [4] (cells treated with A-II prior to invasion assay, chemoattractant IGF-I, control 1.58%, p=0.0011) of 0.15%.
